One test has as its target SERT (Homo sapiens, UniProt P31645). Put plainly: hSERT radioligand binding assay (3H-citalopram). Also on record: expressed in transfected cells; host or cells: HEK-293. Conditions: hSERT membranes (HEK-293), 1.0 nM 3H-citalopram; for Ki: read-out: SERT pKi (converted). How it is done:
(§1) Membrane radioligand binding assays were used to measure inhibition of labeled ligand (^3H-citalopram or ^3H-nisoxetine or ^3H-WIN35428) binding to membranes prepared from cells expressing the respective human recombinant transporter (hSERT or hNET or hDAT) in order to determine the pKi values of test compounds at the transporters.
(§2) Recombinant human embryonic kidney (HEK-293) derived cell lines stably transfected with hSERT or hNET, respectively, were grown in DMEM medium supplemented with 10% dialyzed FBS (for hSERT) or FBS (for hNET), 100 μg/ml penicillin, 100 μg/ml streptomycin, 2 mM L-glutamine and 250 μg/ml of the aminoglycoside antibiotic G418, in a 5% CO2 humidified incubator at 37° C. When cultures reached 80% confluence, the cells were washed thoroughly in PBS (without […] and Mg^2+) and lifted with 5 mM EDTA in PBS. Cells were pelleted by centrifugation, resuspended in lysis buffer (10 mM Tris-HCl, pH7.5 containing 1 mM EDTA), homogenized, pelleted by centrifugation, then resuspended in 50 mM Tris-HCl, pH 7.5 and 10% sucrose at 4° C. Protein concentration of the membrane suspension was determined using a Bio-Rad Bradford Protein Assay kit. Membranes were snap frozen and stored at −80° C. Chinese hamster ovary membranes expressing hDAT (CHO-DAT) were purchased from PerkinElmer and stored at −80° C.
(§3) Binding assays were performed in a 96-well assay plate in a total volume of 200 μl assay buffer (50 mM Tris-HCl, 120 mM NaCl, 5 mM KCl, pH 7.4) with 0.5, 1, and 3 μg membrane protein, for SERT, NET and DAT, respectively.
(§4) Stock solutions (10 mM in DMSO) of test compound were prepared and serial dilutions made using Dilution Buffer (50 mM Tris-HCl, 120 mM NaCl, 5 mM KCl, pH 7.4, 0.1% BSA, 400 μM ascorbic acid).
(§5) Following a 60 minute incubation at 22° C. (or a period sufficient to reach equilibrium), the membranes were harvested by rapid filtration over a 96-well UniFilter GF/B plate, pretreated with 0.3% polyethyleneimine, and washed 6 times with 300 μl wash buffer (50 mM Tris-HCl, 0.9% NaCl, pH 7.5 at 4° C.). Plates were dried overnight at room temperature, ˜45 μl of MicroScint™-20 (Perkin Elmer) added and bound radioactivity quantitated via liquid scintillation spectroscopy. Inhibition curves and saturation isotherms were analyzed using GraphPad Prism Software package (GraphPad Software, Inc., San Diego, Calif.). IC50 values were generated from concentration response curves using the Sigmoidal Dose Response (variable slope) algorithm in Prism GraphPad. Kd and Bmax values for the radioligand were generated from saturation isotherms using the Saturation Binding Global Fit algorithm in Prism GraphPad. pKi (negative decadic logarithm of Ki) values for test compounds were calculated from the best-fit IC50 values, and the Kd value of the radioligand, using the Cheng-Prusoff equation (Cheng & Prusoff (1973) Biochem. Pharmacol. 22(23):3099-3108): Ki=IC50/(1+[L]/Kd), where [L]=concentration radioligand.

In a further test the target is NET (Homo sapiens, UniProt P23975). Kind of test: hNET radioligand binding assay (3H-nisoxetine). Conditions: hNET membranes (HEK-293), 1.0 nM 3H-nisoxetine; for Ki: read-out: NET pKi (converted). Also noted: expressed in transfected cells; host or cells: HEK-293. As to the method: as §1, §2, §3, §4, §5
Sequence of NET (P23975 whole entry): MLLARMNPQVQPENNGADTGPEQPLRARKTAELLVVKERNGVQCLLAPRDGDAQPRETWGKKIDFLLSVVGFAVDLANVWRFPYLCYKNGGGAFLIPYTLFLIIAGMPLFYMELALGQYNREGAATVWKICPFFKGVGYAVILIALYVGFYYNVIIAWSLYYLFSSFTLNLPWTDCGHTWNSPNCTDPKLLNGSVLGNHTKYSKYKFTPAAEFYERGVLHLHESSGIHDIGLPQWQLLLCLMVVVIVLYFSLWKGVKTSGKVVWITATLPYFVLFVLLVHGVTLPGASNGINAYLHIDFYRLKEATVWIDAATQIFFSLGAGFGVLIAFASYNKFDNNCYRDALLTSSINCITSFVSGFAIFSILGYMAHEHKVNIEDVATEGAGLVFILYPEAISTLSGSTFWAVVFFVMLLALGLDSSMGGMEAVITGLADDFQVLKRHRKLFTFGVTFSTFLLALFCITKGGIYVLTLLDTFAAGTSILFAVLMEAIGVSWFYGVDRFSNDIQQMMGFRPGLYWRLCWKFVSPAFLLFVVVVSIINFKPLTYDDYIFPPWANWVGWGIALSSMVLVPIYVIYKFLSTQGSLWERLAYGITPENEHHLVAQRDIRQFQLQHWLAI

Sequence of SERT (P31645 whole entry): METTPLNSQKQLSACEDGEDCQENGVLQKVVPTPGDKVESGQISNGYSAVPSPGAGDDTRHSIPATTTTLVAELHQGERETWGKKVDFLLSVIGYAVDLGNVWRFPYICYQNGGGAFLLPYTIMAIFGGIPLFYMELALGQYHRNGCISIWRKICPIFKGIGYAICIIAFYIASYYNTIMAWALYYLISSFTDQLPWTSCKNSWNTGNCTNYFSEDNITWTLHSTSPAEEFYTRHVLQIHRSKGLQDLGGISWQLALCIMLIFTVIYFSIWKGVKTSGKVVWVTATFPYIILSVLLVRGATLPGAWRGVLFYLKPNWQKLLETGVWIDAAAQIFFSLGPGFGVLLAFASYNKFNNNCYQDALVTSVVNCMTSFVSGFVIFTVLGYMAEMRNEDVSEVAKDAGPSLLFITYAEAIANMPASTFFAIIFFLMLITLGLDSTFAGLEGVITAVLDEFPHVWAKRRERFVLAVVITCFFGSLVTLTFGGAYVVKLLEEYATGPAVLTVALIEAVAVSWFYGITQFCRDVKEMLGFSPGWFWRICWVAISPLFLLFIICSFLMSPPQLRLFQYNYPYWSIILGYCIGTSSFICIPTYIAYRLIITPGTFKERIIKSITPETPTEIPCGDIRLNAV

With `O=C(O)C(F)(F)F.c1ccc([C@H](Oc2cccnc2OC2CCCC2)[C@H]2CCNC2)cc1` [15-13], at SERT, the “SERT pKi” value was “≧7.0”. On NET, the “NET pKi” value is given as “≧7.0”.
`Fc1cc(Cl)c(OC(c2nccs2)C2CCNC2)c(Cl)c1` [Example 5-11, 2-[((S)-(2,6-Dichloro-4-fluorophenoxy)-((S)-pyrrolidin-3-yl-methyl]thiazole]: the Ki on SERT was ≤ 100 nM. Further, the “NET pKi” value at NET is “≧5.0”.
As for `Fc1cc(F)c(Cl)c(O[C@@H](c2nccs2)[C@H]2CCNC2)c1Cl` [Example 5-8], the “SERT pKi” value at SERT is on record as “≧5.0”. Also, the “NET pKi” value at NET is “≧5.0”.
For the molecule `Cc1cc(Cl)ccc1OC(c1nccs1)[C@H]1CCNC1` (single isomer, unassigned) [Example 4], the Ki at SERT and on NET was ≤ 100 nM each time.
For `Cc1ncccc1O[C@@H](c1ccccc1)[C@H]1CCNC1.O=C(O)C(F)(F)F` [15-9], the “SERT pKi” value at SERT is “≧5.0”. Moreover, on NET, the “NET pKi” value is given as “≧5.0”.
For `Clc1ccc(O[C@H](c2ccccc2)[C@@H]2CCNC2)nc1.O=C(O)C(F)(F)F` [14-27], the “SERT pKi” value on SERT was “≧7.0”. Moreover, the “NET pKi” value on NET is listed as “≧7.0”.
For `FC(F)(F)Oc1ccccc1O[C@@H](c1ncco1)[C@H]1CCNC1` [6-37], the Ki at SERT is ≤ 10000 nM; at NET it was ≤ 100 nM.
`Fc1cc(Cl)cc(Cl)c1OC(c1cncc(Cl)c1)C1CCNC1` [Example 2-27, 3-Chloro-5-[(R)-(2,4-dichloro-6-fluorophenoxy)-(S)-pyrrolidin-3-yl-methy1]-pyridine]: the Ki on SERT and at NET was ≤ 100 nM each time.
On to `COc1ccc(O[C@@H](c2ccccc2)C2CCNC2)cn1` (stereo partly shown) [15-29], for which the values for the Ki at SERT and at NET were ≤ 100 nM and ≤ 10000 nM, respectively.
As to `Clc1cc(Cl)cc(O[C@H](c2ncco2)[C@H]2CCNC2)c1` [6-44], the Ki on SERT and on NET was ≤ 100 nM each time.
As for `Fc1cc(F)c(F)c(OC(c2nccs2)C2CCNC2)c1F` [Example 5-4, 2-[((S)-((S)-Pyrrolidin-3-yl-(2,3,5,6-tetrafluorophenoxy)methyl]thiazole], the figures for the Ki at SERT and at NET were ≤ 10000 nM and ≤ 100 nM, respectively.
With `Fc1cc(F)c(O[C@@H](c2cncc(Cl)c2)[C@H]2CCNC2)c(F)c1` [Example 2-33, 3-Chloro-5-[(R)-(S)-pyrrolidin-3-yl-(2,4,6-trifluorophenoxy)methyl]pyridine], the Ki at SERT and on NET was ≤ 100 nM in each case.
As for `Clc1cc(Cl)cc(O[C@@H](c2ccco2)[C@H]2CCNC2)c1` [Example 8-3, (S)-3-[(R)-(3,5-Dichlorophenoxy)furan-2-yl-methyl]pyrrolidine], the Ki at SERT and on NET was ≤ 100 nM throughout.
Consider `Fc1ccc(O[C@@H](c2nccs2)[C@H]2CCNC2)cc1Cl` [Example 5-30], for which the “SERT pKi” value at SERT is on record as “≧7.0”. Moreover, the “NET pKi” value at NET is listed as “≧5.0”.
With `Fc1cc(F)c(Cl)c(OC(c2nccs2)C2CCNC2)c1Cl` [Example 5-9, 2-[((S)-(2,6-Dichloro-3,5-difluorophenoxy)-((S)-pyrrolidin-3-yl-methyl]thiazole], the Ki at SERT and on NET was ≤ 100 nM each time.
In the case of `CC(C)c1ccccc1O[C@@H](c1ncco1)[C@H]1CCNC1.O=C(O)C(F)(F)F` [6-32], the “SERT pKi” value on SERT is recorded as “≧5.0”. In addition, on NET, the “NET pKi” value was “≧7.0”.
With `Fc1cc(O[C@@H](c2ccccc2)[C@H]2CCNC2)ccn1.O=C(O)C(F)(F)F` [16-6], the “SERT pKi” value on SERT is reported as “≧5.0”. In addition, the “NET pKi” value on NET is given as “≧5.0”.
For the molecule `Clc1cccc(Cl)c1O[C@@H](c1ncco1)[C@H]1CCNC1.O=C(O)C(F)(F)F` [6-8], the “SERT pKi” value at SERT is on record as “≧7.0”. For the same molecule, on NET, the “NET pKi” value is listed as “≧7.0”.
For the molecule `Fc1cnc(O[C@@H](c2ccccc2)[C@H]2CCNC2)c(F)c1C(F)(F)F.O=C(O)C(F)(F)F` [14-18], the “SERT pKi” value at SERT is on record as “≧7.0”. Further, the “NET pKi” value at NET is “≧7.0”.
Take `Fc1cnc(O[C@@H](c2ccccc2)[C@H]2CCNC2)c(F)c1.O=C(O)C(F)(F)F` [14-17]: the “SERT pKi” value at SERT is on record as “≧5.0”. Moreover, the “NET pKi” value on NET is “≧7.0”.

Values taken from patent US20100267743A1, “3-(PHENOXYPYRROLIDIN-3-YL-METHYL)HETEROARYL, 3-(PHENYLPYRROLIDIN-3-YLMETHOXY)HETEROARYL, AND 3-(HETEROARYLPYRROLIDIN-3-YLMETHOXY)HETEROARYL COMPOUNDS” (priority 2009, published 2010).
